Assays:
Epac2^Δ280 = target: T1, Epac2^Δ280 (Mus musculus, UniProt Q9EQZ6); assay: Epac activation assay (Rap1B•mGDP fluorescence nucleotide exchange), Epac2^Δ280; format: biochemical; conditions: for AC50 / Rel. kmax: Epac2^Δ280; for Rel. kmax: maximal activity relative to cAMP
T1 construct: made in house
T1 sequence (Q9EQZ6 281-993 isoform Q9EQZ6-3): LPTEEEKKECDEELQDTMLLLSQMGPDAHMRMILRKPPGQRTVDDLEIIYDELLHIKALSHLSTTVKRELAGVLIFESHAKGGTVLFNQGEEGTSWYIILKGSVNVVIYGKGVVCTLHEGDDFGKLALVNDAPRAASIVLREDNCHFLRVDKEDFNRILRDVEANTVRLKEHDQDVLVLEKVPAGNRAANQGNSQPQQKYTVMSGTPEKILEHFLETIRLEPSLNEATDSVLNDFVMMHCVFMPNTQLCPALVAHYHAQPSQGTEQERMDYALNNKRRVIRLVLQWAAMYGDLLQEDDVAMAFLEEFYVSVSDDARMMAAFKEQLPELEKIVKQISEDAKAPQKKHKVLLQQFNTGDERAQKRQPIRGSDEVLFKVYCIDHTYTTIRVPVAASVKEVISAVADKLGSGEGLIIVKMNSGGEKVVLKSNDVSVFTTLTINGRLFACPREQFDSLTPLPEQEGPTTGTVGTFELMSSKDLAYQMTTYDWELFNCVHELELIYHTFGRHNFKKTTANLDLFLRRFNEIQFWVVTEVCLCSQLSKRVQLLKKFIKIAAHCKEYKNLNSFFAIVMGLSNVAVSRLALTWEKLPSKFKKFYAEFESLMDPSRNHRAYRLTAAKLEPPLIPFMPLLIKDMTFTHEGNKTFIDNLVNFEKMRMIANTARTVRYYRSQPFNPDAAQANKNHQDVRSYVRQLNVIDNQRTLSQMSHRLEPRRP
Procedure: Murine Epac2 was used as all previous structural studies were performed with it.
The activity of Epac was determined by a fluorescence assay. […] The fluorescence intensity of Rap1B•mGDP is approximately twice that of free mGDP, and thus, nucleotide exchange can be observed as a decay in fluorescence upon the addition of excess unlabeled GDP.

Epac1 = target: T2, Epac1 (Homo sapiens, UniProt O95398); assay: Cellular Epac activity: Rap•GTP levels in U2OS cells stably expressing Epac1; format: cell-based; conditions: for rel. RapGTP: relative to induction with forskolin and IBMX, Fig. 6C
T2 construct: pBabe-Flag-Epac1 (Epac1, homo sapiens, amino acids 1–881); expressed in transfected cells; host or cells: U2OS
T2 sequence (O95398 1-881 isoform O95398-3): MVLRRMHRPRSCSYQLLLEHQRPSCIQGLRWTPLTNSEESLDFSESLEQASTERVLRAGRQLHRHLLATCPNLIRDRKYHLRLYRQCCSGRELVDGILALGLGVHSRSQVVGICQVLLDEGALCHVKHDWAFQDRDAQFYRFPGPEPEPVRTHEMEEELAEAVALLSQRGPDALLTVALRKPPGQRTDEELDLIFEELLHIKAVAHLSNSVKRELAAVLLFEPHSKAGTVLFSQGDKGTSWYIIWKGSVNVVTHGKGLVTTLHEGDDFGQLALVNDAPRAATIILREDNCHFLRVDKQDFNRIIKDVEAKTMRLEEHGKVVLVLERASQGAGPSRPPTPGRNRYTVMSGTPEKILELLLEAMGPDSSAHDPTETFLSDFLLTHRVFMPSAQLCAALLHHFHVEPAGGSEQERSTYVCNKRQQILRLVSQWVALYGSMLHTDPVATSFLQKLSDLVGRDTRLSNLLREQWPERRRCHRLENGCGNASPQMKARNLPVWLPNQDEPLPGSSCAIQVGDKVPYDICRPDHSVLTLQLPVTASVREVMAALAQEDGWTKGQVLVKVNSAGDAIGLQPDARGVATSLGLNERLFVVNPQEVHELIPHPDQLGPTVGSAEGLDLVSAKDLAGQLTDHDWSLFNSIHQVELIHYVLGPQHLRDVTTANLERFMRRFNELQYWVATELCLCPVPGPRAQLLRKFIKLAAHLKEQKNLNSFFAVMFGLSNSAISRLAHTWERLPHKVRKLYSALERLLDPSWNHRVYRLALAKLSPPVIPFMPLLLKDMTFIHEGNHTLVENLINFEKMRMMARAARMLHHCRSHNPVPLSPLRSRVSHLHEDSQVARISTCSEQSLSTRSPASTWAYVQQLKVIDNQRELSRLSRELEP
Procedure: Rap•GTP levels were determined by precipitating GTP-bound Rap specifically from cell lysates and subsequent western Blotting with an α-Rap antibody (Santa Cruz Biotechnology). To generate stable cell lines, U2OS cells were transfected with pBabe-Flag-Epac1 (Epac1, homo sapiens, amino acids 1–881) or pBabe-Flag-Epac2 (Epac2, mus musculus, amino acids 1–993), selected for Epac expression and maintained under selection with 2 mg/l puromycin. The cells were cultured according to standard protocols. The activity of PKA was determined by western blotting with a monoclonal α-VASP antibody (BD Transduction Laboratories). Blots were developed by enhanced chemiluminescence (ECL) and the use of X-ray films; for quantification films were scanned. The intensities of the Rap•GTP bands and the upper band of VASP (P-VASP) were determined for each condition in ImageJ and normalized to the stimulation with forskolin and IBMX for each blot.

PKA-IIα = target: T3, PKA-IIα (Homo sapiens, UniProt P13861); assay: PKA activity assay, PKA-IIα; format: biochemical; conditions: for EC50: read-out: Kact; for A (PKA activity): PKAIIα
T3 construct: made in house
T3 sequence (P13861 whole entry): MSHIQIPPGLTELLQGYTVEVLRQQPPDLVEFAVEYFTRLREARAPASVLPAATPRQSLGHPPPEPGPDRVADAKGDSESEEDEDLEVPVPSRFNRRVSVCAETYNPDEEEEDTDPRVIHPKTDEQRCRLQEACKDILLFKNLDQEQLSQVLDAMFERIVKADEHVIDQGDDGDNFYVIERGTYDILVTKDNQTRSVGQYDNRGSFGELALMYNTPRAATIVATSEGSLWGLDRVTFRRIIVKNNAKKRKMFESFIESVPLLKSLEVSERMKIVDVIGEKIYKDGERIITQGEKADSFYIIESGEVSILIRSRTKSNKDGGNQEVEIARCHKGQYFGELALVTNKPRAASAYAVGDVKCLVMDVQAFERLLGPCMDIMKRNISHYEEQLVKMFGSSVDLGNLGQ
Procedure: The recombinant human PKA catalytic subunit (Cα1) and the four human PKA regulatory subunits (RIα, RIβ, RIIα, RIIβ) were expressed, purified, and characterized as described. […] PKA holoenzymes were formed by mixing the R- and C-subunit at a molar ratio of 1.2:1 and extensive dialysis against 20 mM MOPS (pH 7.0), 150 mM NaCl, 2.5 mM β-mercaptoethanol, supplemented with 1 mM ATP and 10 mM MgCl2 for PKA-I at 4°C overnight. PKA holoenzymes were used at about 20 nM for the activation assay. The apparent activation constants (Kact) were determined by fitting the concentration-dependent activity to a sigmoid dose-response model.

Row | Compound | AC50 (Epac2^Δ280) [nM] | Rel. kmax (Epac2^Δ280) | activation of Epac1 in cells (Epac1) | rel. RapGTP (Epac1) | EC50 (PKA-IIα; PKA-IIα) [nM] | A (PKA activity) (PKA-IIα; concentration 1 μM) [U/mg] | A (PKA activity) (PKA-IIα; concentration 1.00E+01 μM) [U/mg] | A (PKA activity) (PKA-IIα; concentration 1.00E-01 μM) [U/mg] | A (PKA activity) (PKA-IIα; concentration 1.00E-02 μM) [U/mg] | A (PKA activity) (PKA-IIα; concentration 1.00E-03 μM) [U/mg] | A (PKA activity) (PKA-IIα; concentration 1.00E-04 μM) [U/mg] | A (PKA activity) (PKA-IIα; concentration 1.00E-05 μM) [U/mg] | A (PKA activity) (PKA-IIα; concentration 2.50E+02 μM) [U/mg] | also measured
1 | Nc1ncnc2c1nc(SCc1ccccc1)n2[C@@H]1O[C@@H]2CO[P@](O)(=S)O[C@H]2[C@H]1O [S-220, Sp-8-BnT-cAMPS] | 100 | 7.7 | only minor effects | 0.6097 | 270 | 1.74E+01 | 2.30E+01 | 1.09E+01 | 5.815 | 5.193 | 4.739 | 3.782 | 2.28E+01 | kobs (Epac2^Δ280; 0.04 μM compound): 0.000468 s⁻¹; kobs (Epac2^Δ280; 0.05 μM compound): 0.000508 s⁻¹; kobs (Epac2^Δ280; 0.06 μM compound): 0.000631 s⁻¹; kobs (Epac2^Δ280; 0.07 μM compound): 0.000864 s⁻¹; kobs (Epac2^Δ280; 0.08 μM compound): 0.000721 s⁻¹; kobs (Epac2^Δ280; 0.1 μM compound): 0.000827 s⁻¹; kobs (Epac2^Δ280; 0.2 μM compound): 0.00131 s⁻¹; kobs (Epac2^Δ280; 0.3 μM compound): 0.00149 s⁻¹; kobs (Epac2^Δ280; 0.4 μM compound): 0.00167 s⁻¹; kobs (Epac2^Δ280; 0.5 μM compound): 0.00155 s⁻¹; kobs (Epac2^Δ280; 0.6 μM compound): 0.00184 s⁻¹; kobs (Epac2^Δ280; 0.7 μM compound): 0.00188 s⁻¹; Kact compared to cAMP (times higher / affinity reduced) (PKA-IIα; PKA-IIα): three to eight times higher; A (PKA activity) (PKA-IIα; concentration 2.50E-01 μM): 1.40E+01 U/mg; A (PKA activity) (PKA-IIα; concentration 2.50E-02 μM): 8.017 U/mg
2 | COC1C2OP(=O)(O)OCC2OC1n1c(Sc2ccc(Cl)cc2)nc2c(N)ncnc21 [D-007, 8-pCPT-2′-O-Me-cAMP, reference compound] | 3500 | 0.8 | strongly activated | 1.65 | > 70000 | 7.998 | 1.14E+01 | 4.917 | 4.453 | 5.045 | 4.937 | 3.782 | 1.57E+01 | A (PKA activity) (PKA-IIα; concentration 1.00E+03 μM): 1.97E+01 U/mg; A (PKA activity) (PKA-IIα; concentration 5.00E+01 μM): 1.39E+01 U/mg; A (PKA activity) (PKA-IIα; concentration 5.00E+02 μM): 1.77E+01 U/mg; A (PKA activity) (PKA-IIα; concentration […]): 9.518 U/mg

Reference: paper PMC4300089, “Structure-Guided Design of Selective Epac1 and Epac2 Agonists” (PLoS Biology, 2015)
